As a reminder, the IC50 is the concentration at which inhibition is half-maximal. Read a low IC50 as greater potency. As a reminder, the AC50 is the midpoint of the concentration-response curve, whichever way the signal moves. Lower therefore signals greater potency.

In experiment [1] the test system is HT29. Briefly: Cytotoxicity in vitro (MTT) in presence/absence of elastase. It counts as cell-based, human. The note with it: 72 h. Here is the method:
(§1) Cultivation of cells was performed according to standard procedures with the media recommended by the provider. The cells, in a total volume of 100 μL, were seeded in a 96-well plate with a white bottom (#3610). After a 24 h incubation period at 37° C. and […], the medium was exchanged by adding 90 μL fresh medium. The treatment started by adding the test compound in 10 μL of culture medium to the cells in triplicates. Concentrations ranging from 10^−5 M to 10^−13 M were chosen. Two identically treated sets of samples were prepared. One set was treated with the test compound alone, whereas to the second set the compound and 10 nM elastase was added followed by a 72 h incubation period at 37° C. and […]. The proliferation was detected using the MTT assay (ATCC). At the end of the incubation period the MTT reagent was added to all samples for 4 h. Lysis of the cells followed by addition of the detergent was done overnight. The formed dye was detected at 570 nm. The proliferation of untreated but otherwise identically handled cells was define as the 100% value.

In experiment [2] the test system is NCI H292. The experiment is described as above. The experiment is classed as cell-based, human. As to conditions: 72 h. Here is the method:
as §1

In experiment [3] the test system is SUM149. The experiment is described as above. As to conditions: 72 h. The experiment is classed as cell-based. Here is the method: as §1
The next experiment has as its system 786-O. In words: Cytotoxicity assay (Version 2, automated, AC50) with/without neutrophil elastase. As to conditions: Version 2, activity concentration at −50%. The experiment is classed as cell-based, human. Here is the method: as §1
(§2) The cytotoxicity assay (Version 2) was performed as described above. Some changes were applied as the assays were performed in an automated fashion and the IC50 values determination was changed. Here the change in metabolic activity of the cells, in percent, was calculated by normalization of the measured values to the absorbance values of medium containing wells without cells (═−100%) and the absorbance of the DMSO-treated cells (═0%). AC50 values (activity concentration at −50%) were determined by means of a 4 parameter Hill-fit using GeneData Screener software.

Experiment [4] concerns HT29. Described as above. The experiment is classed as cell-based, human. The note with it: Version 2, activity concentration at −50%. Here is the method: as §1, §2
Experiment [5] deals with NCI H292. The description is as above. It counts as cell-based, human. The note with it: Version 2, activity concentration at −50%. The method, then: as §1, §2
For experiment [6], the system named is SUM149. The experiment is described as above. The experiment is classed as cell-based. The note with it: Version 2, activity concentration at −50%. The method, then: as §1, §2
The mark [7] stands for this setting: HT29, without (−) neutrophil elastase.
The mark [8] stands for this setting: NCI H292, without (−) neutrophil elastase.
The mark [9] stands for this setting: SUM149, without (−) neutrophil elastase.
The mark [10] stands for this setting: without (−) neutrophil elastase.
[11] abbreviates: HT29, with (+) neutrophil elastase.
[12] abbreviates: NCI H292, with (+) neutrophil elastase.
The mark [13] stands for this setting: SUM149, with (+) neutrophil elastase.

With `CCCNC(=O)Nc1cccc(S(=O)(=O)Nc2cccc([C@@H](CC(=O)O)NC(=O)Nc3ccc(NC(=O)N(C)CCN(C)CCN(C)CC(=O)N[C@@H](CC(N)=O)C(=O)N4CCC[C@H]4C(=O)N[C@H](C(=O)N=S(C)(=O)Cc4cc5cc(c4)OC(C)CCOc4cc(F)ccc4-c4nc(ncc4F)N5)C(C)C)cc3)c2)c1` (relative stereo) [Compound 6], the 50% inhibitory concentration (IC50) in the experiment with HT29 [1] (HT29, with (+) 10 nM neutrophil elastase) is at most 1 nM; with HT29 [1] (setting [7]), above 100 nM; in the experiment with NCI H292 [2] (NCI H292, with (+) 10 nM neutrophil elastase), at most 1 nM; with NCI H292 [2] (setting [8]), above 100 nM; in the experiment on SUM149 [3] (SUM149, with (+) 10 nM neutrophil elastase), at most 1 nM; with SUM149 [3] (setting [9]), 11 to 100 nM. In addition, the AC50 in the experiment with 786-O (with (+) neutrophil elastase) was at most 10 nM; in the experiment on 786-O (setting [10]), at most 10 nM; in the experiment with HT29 [4] (setting [11]), at most 10 nM; in the experiment on HT29 [4] (setting [7]) it was at most 10 nM; with NCI H292 [5] (setting [12]), at most 10 nM; in the experiment with NCI H292 [5] (setting [8]), 100 to 1000 nM. Moreover, the AC50 in the experiment on SUM149 [6] (setting [13]) and in the experiment on SUM149 [6] (setting [9]) was at most 10 nM throughout.
`CCCNC(=O)Nc1cccc(S(=O)(=O)Nc2cccc([C@@H](CC(=O)O)NC(=O)Nc3ccc(NC(=O)NCCOCCOCCOCCC(=O)NCCNC(=O)CC[C@H](NC(=O)CCCC(=O)NCCN(C)CCN(C)CCN(C)CC(=O)N[C@@H](CC(N)=O)C(=O)N4CCC[C@H]4C(=O)N[C@H](C(=O)N=[S@@](C)(=O)Cc4cc5cc(c4)OCCCCOc4cc(F)ccc4-c4nc(ncc4F)N5)C(C)C)C(=O)NCCNC(=O)CCOCCOCCOCCNC(=O)Nc4ccc(NC(=O)N[C@H](CC(=O)O)c5cccc(NS(=O)(=O)c6cccc(NC(=O)NCCC)c6)c5)cc4)cc3)c2)c1` [Compound 25]: the AC50 was 11 to 100 nM in the experiment with 786-O (with (+) neutrophil elastase); above 1000 nM in the experiment with 786-O (setting [10]); 11 to 100 nM in the experiment on HT29 [4] (setting [11]); above 1000 nM with HT29 [4] (setting [7]); 11 to 100 nM in the experiment with NCI H292 [5] (setting [12]); 11 to 100 nM in the experiment with SUM149 [6] (setting [13]). In the experiment with SUM149 [6] (setting [9]), this molecule displayed an AC50 of 100 to 1000 nM.
As for “disodium 1-{(2S)-2-(carboxylatomethyl)-17-[4-({[(1R)-2-carboxylato-1-{3-[({3-[(propylcarbamoyl)amino]phenyl}sulfonyl)amino]phenyl}ethyl]carbamoyl}amino)anilino]-4,17-dioxo-7,10,13-trioxa-3,16-diazaheptadecan-1-oyl}-L-prolyl-N—[(R*)—{[15,19-difluoro-3,4-dihydro-2H,11H-10,6-(azeno)-12,16-(metheno)-1,5,11,13-benzodioxadiazacyclooctadecin-8-yl]methyl}(methyl)oxido-lambda^6-sulfanylidene]-L-valinamide [Compound 42]”, the AC50 in the experiment with 786-O (with (+) neutrophil elastase) was at most 10 nM; in the experiment on 786-O (setting [10]), 100 to 1000 nM; with HT29 [4] (setting [11]), at most 10 nM; with HT29 [4] (setting [7]), above 1000 nM; with NCI H292 [5] (setting [12]), at most 10 nM; in the experiment on NCI H292 [5] (setting [8]), 100 to 1000 nM. The AC50 is at most 10 nM in the experiment on SUM149 [6] (setting [13]) and 100 to 1000 nM with SUM149 [6] (setting [9]).

The values above are taken from patent US20240408222A1, “COMPOUNDS, PHARMACEUTICAL COMPOSITIONS, AND METHODS FOR THE TREATMENT, PREVENTION, OR MANAGEMENT OF HYPERPRO[…]” (VINCERX PHARMA GMBH, priority 2021, published 2024).
